Paper PMC9611048, “Rapid Simultaneous Determination of Three Synthetic Cannabinoids in Urine and Plasma of Rats Using Ultra-High Performance Liquid Chromatography Tandem Mass Spectrometry” (Toxics, 2022)

Key:
[1] = Determination of synthetic cannabinoids in rat plasma by LC-MS/MS after dosing; type: in vivo; details: 1 mg/kg tail vein injection; for concentration at 72 h: male, Sprague-Dawley, intravenous
Protocol: (§1) The Sprague–Dawley male rats (n = 12, 6 weeks, weighing 190–210 g) were obtained from Zhejiang Academy of Medical Sciences (Hangzhou, Zhejiang, China) and acclimatized for 1 week before exposure in the experimental room (temperature 23 ± 2 ℃, humidity 55 ± 10%, 12 h light–dark cycle). After 1-week adaptation, rats were fasted for 16 h before […]. The rats were randomly allocated to 3 groups, the JWH-122, 5F-AMB, and AMB-PUBINACA group, while the doses were all 1 mg/kg bw/day by tail vein injection. The urine samples were collected at 2 h, 4 h, 8 h, and 24 h during the initial 24 h and every 24 h during the next 48 h. The blood samples were collected from the abdominal aorta. Finally, urine samples and blood samples were obtained from each rat and stored at −80 °C. All the above animal experimental procedures were approved by the Zhejiang Center of Laboratory Animals Welfare and Ethical Review Committee (Approval ID: ZJCLA-IACUC-20100005; Hangzhou, China).
In this experiment, extraction conditions of three synthetic cannabinoids in rat plasma and urine were optimized, and the detailed parameters are shown in Table 1. Briefly, 100 μL of plasma sample was transferred into a centrifuge tube with 100 μL of acetonitrile and 500 μL of methanol and then vortexed for 6 min. Finally, the supernatant was centrifuged at 12,000 rpm for 10 min then filtered through a 0.22 μm cellulose filter. Solid phase extraction (SPE) is a common pretreatment method for the synthesis of cannabinoids in urine. The urine sample was extracted by SPE. The SPE cartridges were conditioned with 3 mL of methanol followed by 6 mL of water. Amounts of 1.6 mL of acetonitrile and water were added to 400 µL of urine, mixed uniform. […]
The separated analytes were quantified using an AB SCIEX 6500^+ quadrupole ion trap mass spectrometer (QTRAP MS) under the multiple reaction monitoring (MRM) mode with negative ion channels (Table 2). […] The HPLC-QTRAP-MS data were converted to SCIEX OS 1.4.0.18067 (SCIEX, Toronto, QUE, CA) for qualitative and quantitative analysis.

[2] = Determination of synthetic cannabinoids in rat urine by LC-MS/MS after dosing; type: in vivo; details: for concentration at 2 h / concentration at 4 h / concentration at 8 h / concentration at 24 h / concentration at 48 h / concentration at 72 h: male, Sprague-Dawley, intravenous; for detection window: rat, the dose for the tail vein was 1 mg/kg
Protocol: as §1
In this experiment, extraction conditions of three synthetic cannabinoids in rat plasma and urine were optimized, and the detailed parameters are shown in Table 1. Briefly, 100 μL of plasma sample was transferred into a centrifuge tube with 100 μL of acetonitrile and 500 μL of methanol and then vortexed for 6 min. Finally, the supernatant was centrifuged at 12,000 rpm for 10 min then filtered through a 0.22 μm cellulose filter. Solid phase extraction (SPE) is a common pretreatment method for the synthesis of cannabinoids in urine. The urine sample was extracted by SPE. The SPE cartridges were conditioned with 3 mL of methanol followed by 6 mL of water. Amounts of 1.6 mL of acetonitrile and water were added to 400 µL of urine, mixed uniform. After sample loading, the cartridges were respectively washed with 3 mL of 5% methanol, discard wash. The extract was eluted via 4 mL of methanol and evaporated to dryness under a stream of nitrogen at 40 ℃.
The AB SCIEX ExionLCTM0AD XR high-performance liquid chromatograph system coupled with the SCIEX QTRAP 6500^+ triple quadrupole/linear ion trap mass spectrometer system (AB SCIEX, Milford, MA, USA) was used for analysis. Chromatographic separation was carried out using a Waters UPLC HSS T3 (150 × 2.1 mm, 1.8 μm) column at 40 °C;. Injection volume was 1 μL. The mobile phase comprised 0.1% formic acid in water (A) and acetonitrile (B) at a flow rate of 0.3 mL/min. Gradient conditions were set as follows: 10% B (1 min), to 100% B (in 6 min), hold 100% B (4 min), to 10% B (in 0.1 min), and hold (1.9 min).
The separated analytes were quantified using an AB SCIEX 6500^+ quadrupole ion trap mass spectrometer (QTRAP MS) under the multiple reaction monitoring (MRM) mode with […] ion channels (Table 2). The mass spectrometry parameters were set as follows: curtain gas, 35 psi; collision gas, medium; ion spray voltage, 5500 V; source temperature, 550 ℃; nebulizing gas, 50 psi; heater gas, 50 psi. The HPLC-QTRAP-MS data were converted to SCIEX OS 1.4.0.18067 (SCIEX, Toronto, QUE, CA) for qualitative and quantitative analysis.

[3] = rat urine, 1 mg/kg tail vein injection
[4] = rat urine, 72 h, 1 mg/kg tail vein injection

CCCCCn1cc(C(=O)c2ccc(C)c3ccccc23)c2ccccc21 [JWH-122, 4-methylnaphthalen-1-yl-(1-pentylindol-3-yl) methanone]
concentration at 72 h [1]: 0.08 ng/mL | concentration at 2 h [2, 3]: 0.2 ng/mL | concentration at 4 h [2, 3]: 0.12 ng/mL | concentration at 8 h [2, 3]: 0.09 ng/mL | concentration at 24 h [2, 3]: 0.06 ng/mL | concentration at 48 h [2, 3]: 0.02 ng/mL | concentration at 72 h [2, 4]: 0.01 ng/mL | detection window [2]: 2 to 3 days

COC(=O)C(NC(=O)c1nn(Cc2ccc(F)cc2)c2ccccc12)C(C)C (stereo not drawn) [AMB-FUBINACA, methyl 2-(1-(4-fluorobenzyl)-1Hindazole-3-carboxamido)-3-methylbutanoate]
concentration at 72 h [1]: 0.05 ng/mL | concentration at 2 h [2, 3]: 3.38 ng/mL | concentration at 4 h [2, 3]: 0.41 ng/mL | concentration at 8 h [2, 3]: 0.19 ng/mL | concentration at 24 h [2, 3]: 0.1 ng/mL | concentration at 48 h [2, 3]: 0.03 ng/mL | Urine Concentration 72 h [2, 4]: not detected | detection window [2]: 2 to 3 days

COC(=O)[C@@H](NC(=O)c1nn(CCCCCF)c2ccccc12)C(C)C [5F-AMB, methyl (1-(5-fluoropentyl)-1H-indazole-3-carbonyl)-L-valinate]
Plasma Concentration 72 h [1]: not detected | concentration at 2 h [2, 3]: 8.68 ng/mL | concentration at 4 h [2, 3]: 1.11 ng/mL | concentration at 8 h [2, 3]: 0.72 ng/mL | concentration at 24 h [2, 3]: 0.14 ng/mL | concentration at 48 h [2, 3]: 0.03 ng/mL | concentration at 72 h [2, 4]: 0.01 ng/mL | detection window [2]: 2 to 3 days
